Results taken from patent US10195158B2, “Bioactive oil based polyesteramide nanofibers for wound healing applications” (Council of Scientific and Industrial Research, priority 2014, dated 2019).
Converted amounts (≈) assume the structure as drawn.

Test system: Staphylococcus aureus
Test: Minimum inhibitory concentration of amoxicillin
Type: cell-based
Details: susceptible bacteria

MIC: 0.05 to 8 µg/mL (≈ 0.137 to 21.9 µM)
Structure (SMILES): CC1(C)S[C@@H]2[C@H](NC(=O)[C@H](N)c3ccc(O)cc3)C(=O)N2[C@H]1C(=O)O [Amoxicillin]
